{"source": "patent US20160031836A1", "about": "“BIOMARKER” (Novartis AG, priority 2013, published 2016)", "key": {"human primary BALL cells": {"test_system": "human primary BALL cells", "assay": "Dose response in human primary BALL cells (CellTiter-Glo)", "type": "cell-based", "details": "48 h", "method": "A. The percentage of human leukemia cells in bone marrow of recipient mice transplanted with human primary leukemia cells. The human cells represented by human CD45+ were determined by FACS. B. Real-time PCR analysis of MLL1 expression among different human primary leukemia cell. C. Dose response of AUY922 in human primary BALL cells. Human primary BALL cells were treated with DMSO or serial dilutions of AUY922 for 48 h. Relative cell growth was measured by CellTiter-Glo. D. JURKAT, SEM, RS(4,11) and MOLM13 were treated for 72 h with different doses of AUY922 and/or NVP-JAE067, inhibition of cell viability was measured using the CellTiter-Glo assay. E. Chalice software was used to calculate excess inhibition over Loewe additivity for each AUY922 and NVP-JAE067 dose combination.\nTo investigate whether MLL1 expression is different in primary human cancer cells, we examined the expression of MLL1 in human B acute lymphoblastic leukemia samples. The primary human BALL cells were transplanted into immune deficient mice and bone marrow cells were collected from recipient mice until blood tumor burden is higher than 70% by FACS analysis. […] We next evaluated the efficacy of AUY922 on those human leukemia cells. […] We next tested the combination effect of AUY922 and DOT1L inhibitor NVP-JAE067 on human leukemia cells. […] Taken together, those result indicated human leukemia cells with MLL1 low expression may be more sensitive to HSP90 inhibition and the combination of HSP90 inhibitor and DOT1L inhibitor may be a good strategy for human leukemia cells harboring MLL1 translocation."}, "A375, A2058 and HCT116": {"test_system": "A375, A2058 and HCT116", "assay": "Cell colony formation assay with MLL1 knockdown", "type": "cell-based, human", "details": "Doxycycline 5 days, compound 6 days", "method": "A. Cell colony formation assay of MLL1 knockdown with AUY922 treatment in A375 cells. 5000 shNTC or shMLL1 A375 cells were seeded in six wells plate and were treated or untreated with Doxycycline for 5 days, then followed by compound treatment for 6 days. B. Cell colony formation assay of MLL1 knockdown with AUY922 treatment in A2058 cells. 5000 shNTC or shMLL1 A2058 cells were seeded in six wells plate and were treated or untreated with Doxycycline for 5 days, then followed by compound treatment for 6 days. C. Western blotting analysis of tumor samples. Tumor samples were collected at the end of studies and western blotting analysis of MLL1 and GAPDH were performed. D. Real-time PCR analysis of tumor samples. Tumor samples were collected at the end of studies and total mRNA was collected and Real-time PCR was performed. E. The combinational effect of MLL1 knockdown and HSP90 inhibitor in A375 xenograft mouse model. Tumor growth rate of A375 cells expressing inducible control shRNA or shRNA against MLL1 under Doxycycline and/or HSP990 were compared at different time points. […] The percentage of S+G2M cells were determined by PI staining. […] The apoptotic cells represented by 7AAD+AnnexinV+ were determined by FACS. […] Relative cell growth was measured by CTG. […] The apoptotic cells represented by 7AAD+AnnexinV+ were determined by FACS. […]"}, "MLL1−/− MEFs [1]": {"test_system": "MLL1−/− MEFs", "assay": "Cell apoptosis analysis (7AAD+AnnexinV+, FACS) in MEFs", "type": "cell-based, mouse", "details": "AUY922 100 nM, 48 h", "method": "(§1) A. Cell colony formation assay of MLL1 knockdown with AUY922 treatment in A375 cells. 5000 shNTC or shMLL1 A375 cells were seeded in six wells plate and were treated or untreated with Doxycycline for 5 days, then followed by compound treatment for 6 days. B. Cell colony formation assay of MLL1 knockdown with AUY922 treatment in A2058 cells. 5000 shNTC or shMLL1 A2058 cells were seeded in six wells plate and were treated or untreated with Doxycycline for 5 days, then followed by compound treatment for 6 days. C. Western blotting analysis of tumor samples. Tumor samples were collected at the end of studies and western blotting analysis of MLL1 and GAPDH were performed. D. Real-time PCR analysis of tumor samples. Tumor samples were collected at the end of studies and total mRNA was collected and Real-time PCR was performed. E. The combinational effect of MLL1 knockdown and HSP90 inhibitor in A375 xenograft mouse model. Tumor growth rate of A375 cells expressing inducible control shRNA or shRNA against MLL1 under Doxycycline and/or HSP990 were compared at different time points. […] The percentage of S+G2M cells were determined by PI staining. […] The apoptotic cells represented by 7AAD+AnnexinV+ were determined by FACS. […] Relative cell growth was measured by CTG. […] The apoptotic cells represented by 7AAD+AnnexinV+ were determined by FACS."}, "MLL1+/+ MEFs [2]": {"test_system": "MLL1+/+ MEFs", "assay": "Cell apoptosis analysis (7AAD+AnnexinV+, FACS) in MEFs", "type": "cell-based, mouse", "details": "AUY922 100 nM, 48 h", "method": "as §1"}, "[3]": {"test_system": "binding of HSF1 to HSP70 or BAG3 promoter", "assay": "ChIP with HSF1 antibody, quantitative real-time PCR", "type": "cell-based, human", "details": "A375 cells, AUY922 100 nM, one hour", "method": "shHSF1 transduced A375 cells were treated with or without Doxycycline for 3 days and were further treated with AUY922 100 nM for 1 h. Chromatin was immunoprecipitated with anti-MLL1 antibody and amplified by quantitative real-time PCR using primers around HSE element of HSP70 (A) or BAG3 (B) gene promoter and MLL1 binding site of MESI1 (C) promoter.\nTo examine the recruitment of MLL1 to the HSF1-modulated gene promoter, we performed chromatin immunoprecipitation (ChIP) with A375 cells transduced with control or shMLL1 and treated or untreated with AUY922 for 1 h. Chromatin from those cells was sonicated to obtain fragments below 500 bp and immunoprecipitated using polyclonal against HSF1 and MLL1. Quantitative real-time PCR analysis was carried out with primer specific for the HSP70 and BAG3 encompassing the HSE element. MLL1 binding site of MESI1 was used as a control. […] In contrast, the bindings were not detected in A375 cells with inducible HSF1 knockdown (Supplement FIG. 3). A significant of MLL1 occupancy of the HSP70 and BAG3 gene promoter is also observed at one hour of AUY922 treatment (FIGS. 2C and D). In contrast, the binding of MLL1 to MESI promoter was not detected (FIG. 2E). […]"}, "MLL1−/− MEFs [4]": {"test_system": "MLL1−/− MEFs", "assay": "Microscopic analysis and dose response (CTG) in MEFs", "type": "cell-based, mouse", "details": "after 48 h treatment", "method": "as §1"}, "MLL1+/+ MEFs [5]": {"test_system": "MLL1+/+ MEFs", "assay": "Microscopic analysis and dose response (CTG) in MEFs", "type": "cell-based, mouse", "method": "as §1"}, "MOLM13": {"test_system": "MOLM13", "assay": "Cell proliferation by CellTiter-Glo, human leukemia cells", "type": "cell-based", "details": "MOLM13, 72 h", "method": "(§2) Eight human leukemia cells with or without MLL1 translocation were treated with AUY922 for 72 h and cell proliferation rate were measured by CellTiter-Glo. IC95 were used to estimate the cell response to HSP90 inhibition. Supplementary Table. S1: 35 Genes were Identified as Modulators of Cell Response to HSP90 Inhibition by siRNA Screening"}, "RS(4,11)": {"test_system": "RS(4,11)", "assay": "Cell proliferation by CellTiter-Glo, human leukemia cells", "type": "cell-based", "details": "72 h", "method": "as §2"}, "NOMO": {"test_system": "NOMO", "assay": "Cell proliferation by CellTiter-Glo, human leukemia cells", "type": "cell-based", "details": "72 h", "method": "as §2"}, "[6]": {"test_system": "other leukemia cell lines", "assay": "Cell proliferation by CellTiter-Glo, human leukemia cells", "type": "cell-based", "details": "72 h", "method": "as §2"}, "A375 xenograft": {"test_system": "A375 xenograft", "assay": "A375 xenograft mouse model, tumor growth", "type": "in vivo"}, "SEM xenograft": {"test_system": "SEM xenograft", "assay": "SEM xenograft mouse model, tumor growth", "type": "in vivo", "details": "10 mg/kg PO, qw", "method": "(§3) A. Real-time PCR analysis of different human leukemia cell lines under HSP90 inhibitor treatment. Human leukemia cells were cultured and treated or untreated with AUY922 for 48 h. Then, total mRNA was collected and Real-time PCR was performed. B. Cell apoptosis analysis of MLL1 low expression or MLL1 high expression human leukemia cells with AUY922 treatment. Human leukemia cells were treated or untreated with AUY922 100 nM for 48 h. The apoptotic cells represented by 7AAD+AnnexinV+ were determined by FACS. C. The effect of HSP90 inhibitor in SEM and MOLM13 xenograft mouse model. Tumor growth rate of SEM and MOLM13 under HSP990 treatment were compared at different time points. […] SEM and MOLM13 cells were treated or untreated with AUY922 100 nM for 3 h. Total RNA were collected and microarray was performed.\n(§4) Mice were maintained and handled in accordance with Novartis Biomedical Research Animal Care and Use Committee protocols and regulations. A375 with Tet-inducible shRNA against MLL1 were cultured in DMEM supplemented with 10% Tet-approved FBS. Mice (6-8 wk old, n=8) were inoculated s.c. with 1×10^6 cells in the right dorsal axillary region. Tumor volume was measured by calipering in two dimensions and calculated as (length×width2)/2. […] Data were expressed as mean±SEM, and differences were considered statistically significant at P<0.05 by Student t test."}, "MOLM13 xenograft": {"test_system": "MOLM13 xenograft", "assay": "MOLM13 xenograft mouse model, tumor growth", "type": "in vivo", "details": "10 mg/kg PO, qw", "method": "as §3, §4"}, "A375 cells": {"test_system": "A375 cells", "assay": "Cell colony formation assay with MLL1 knockdown, NVP-LGX818", "type": "cell-based, human", "details": "shMLL1", "method": "Supplementary FIG. 5: Cell colony formation assay of HSF1 knockdown or MLL1 knockdown with NVP-LGX818 treatment in A375 cells 5000 shNTC, shHSF1 or shMLL1 A375 cells were seeded in six wells plate and were treated or untreated with Doxycycline for 5 days, then followed by compound treatment for 6 days."}}}
{"smiles": "CCNC(=O)c1noc(-c2cc(C(C)C)c(O)cc2O)c1-c1ccc(CN2CCOCC2)cc1", "note": "[AUY922, 5-(2,4-Dihydroxy-5-isopropyl-phenyl)-4-(4-morpholin-4-ylmethyl-phenyl)-isoxazole-3-carboxylic acid ethylamide]", "values": [{"measurement": "response to treatment (relative cell growth)", "setting": "human primary BALL cells; P1 leukemia cells with high MLL1 expression", "result": "didn't response"}, {"measurement": "response to treatment (relative cell growth)", "setting": "human primary BALL cells; P4 leukemia cells with low MLL1 expression", "result": "good response"}, {"measurement": "response to treatment (relative cell growth)", "setting": "human primary BALL cells; other two human leukemia samples", "result": "a certain response"}, {"measurement": "sensitivity in colony formation on induction of MLL1 shRNA", "setting": "A375, A2058 and HCT116", "result": "dramatically sensitivity"}, {"measurement": "cells induced apoptosis", "setting": "MLL1−/− MEFs [1]", "result": "more than 80%"}, {"measurement": "cells induced apoptosis", "setting": "MLL1+/+ MEFs [2]", "result": 30, "unit": "%"}, {"measurement": "binding of HSF1 to HSP70 or BAG3 promoter (ChIP)", "setting": "[3]", "result": "increased about ten times"}, {"measurement": "cells killed", "setting": "MLL1−/− MEFs [4]", "result": "more than 90%"}, {"measurement": "effect on proliferation / killing of cells", "setting": "MLL1+/+ MEFs [5]", "result": "inhibits the proliferation rate of MEFs, but didn't kill those cells"}, {"measurement": "IC95", "setting": "MOLM13", "result": "about 100 nM"}, {"measurement": "IC95", "setting": "RS(4,11)", "result": "about 100 nM"}, {"measurement": "IC95", "setting": "NOMO", "result": "about 100 nM"}, {"measurement": "IC95", "setting": "[6]", "result": "about 1000 nM"}]}
{"smiles": "COc1cccc(-c2cc(F)ccc2[C@H]2Cc3nc(N)nc(C)c3C(=O)N2)n1", "note": "[HSP990, (R)-2-amino-7-[4-fluoro-2-(6-methyoxy-pyridin-2-yl)-phenyl]-4-methyl-7,8-dihydro-6H-pyrido[4,3-d]pyrimidin-5-one]", "values": [{"measurement": "tumor growth outcome", "setting": "A375 xenograft; HSF1 knockdown & HSP990 combination", "result": "tumor stasis"}, {"measurement": "inhibited tumor growth, T/C", "setting": "A375 xenograft; HSP990 alone, 10 mg/kg PO, qw", "result": 50, "unit": "% T/C"}, {"measurement": "inhibited tumor growth, T/C", "setting": "SEM xenograft", "result": 30, "unit": "% T/C"}, {"measurement": "inhibited tumor growth, T/C", "setting": "MOLM13 xenograft", "result": 60, "unit": "% T/C"}]}
{"smiles": "COC(=O)N[C@@H](C)CNc1nccc(-c2cn(C(C)C)nc2-c2cc(Cl)cc(NS(C)(=O)=O)c2F)n1", "note": "[NVP-LGX818]", "values": [{"measurement": "combinational effect with MLL1 knockdown, colony formation", "setting": "A375 cells", "result": "does not have a combinational effect"}]}
